Measurements as given in patent US20240209016A1, “FLUORESCENT NUCLEOSIDE PHOSPHATES” (STEALTH LABELS BIOTECH AB, priority 2021, published 2024).
Values joined by “and” are separate entries in the source; they are usually repeats but may differ in a detail not shown here. Equal values may be shown once.

What was measured:
[1] = Photophysical characterisation (absorption and emission spectra in DPBS); type: physicochemical; conditions: room temperature; for ε405, FBA χ ΦF: at 405 nm; for λem, max / ΦF: excitation 355 nm; for ΦF: relative to quinine sulphate
Description: Absorption spectra were recorded on a Cary 4000 spectrometer (Agilent Technologies). The emission spectra were measured on a SPEX Fluorolog 3 spectrofluorimeter (Jobin Yvon Horiba). Three consecutive emission spectra recorded at a scan rate of 600 nm min−1 were collected and averaged. The spectra of compounds 7 and 17 in DPBS were recorded from 360 nm to 695 nm with excitation at 355 nm. To avoid bleaching, the monochromator slits on the excitation side were set to 0.8 nm, and on the emission side to 2.5 nm.
The spectra of molar absorptivities (ε in M^−1cm^−1) were calculated using Equation 1, with A being the measured absorption, A260 and ε260 the absorption or molar absorptivity, respectively, at 260 nm.
The fluorescence quantum yields were determined relative to the quantum yield of quinine sulphate in 0.5 M H2SO4 (ϕF=0.546^42, referred to as reference), and calculated using Equation 2, in which subscripts s and r refer to sample and reference, respectively. I is the integrated fluorescence intensity, A the measured absorption of the fluorophore at the excitation wavelength and n is the refractive index of the solvent (H2O or H2SO4, respectively; Eaton D. F.; Pure Appl. Chem. 60, 1107-1114 [1988 ]).
The spectroscopic properties of compounds 7 and 17 were determined under physiological conditions in order to determine the experimental setup for cell studies, with absorption and emission spectra being recorded in DPBS to mimic the ionic strength and salt composition in mammalian cells. To record emission spectra, the excitation wavelength was set to 355 nm, and measurements were performed at room temperature (ca. 22° C.). Molar absorptivities (s) were then calculated using the Beer-Lambert law.

Huh-7 cells [2] = assay: Cellular uptake and localisation by confocal fluorescence microscopy; type: cell-based, human; conditions: 2.5 μM
Excerpt: Confocal Laser Scanning Fluorescence Microscopy: Images were captured using a Nikon eclipse Ti microscope with a Nikon C2plus scanner, two parallel Gallium arsenide phosphide (GaAsP) detectors, and an Apo 60x Oil μS DIC N2 objective. To excite the fluorescent nucleoside triphosphates the 405 nm laser line was used, and the emission was collected between 407-607 nm. To optimize the signal while avoiding photobleaching of the compounds a laser power of 2% and a detector gain of 4% was applied. For live cell imaging, Huh-7 cells were seeded in a four-compartment dish (CELLview Dishes, Greiner Bio-One) with glass bottom as described above. During imaging the dish was placed in a stage top incubation chamber (OKO lab) maintaining 37° C. and 5% CO2.
Time-lapse Imaging: To image the uptake of compounds 7 and 17 over time, the time-lapse setup of the NIS software was used. […]
Results: To explore the cellular uptake of compounds 7 and 17, they were added to Huh-7 cells in CCM and the uptake was monitored as function of time using a confocal fluorescence microscope (FIG. 4). Control cells, exposed to CCM alone, were imaged using the same microscopy settings and recorded as reference to probe for cellular autofluorescence levels. […]

Huh-7 cells [3] = assay: Dose response of cell uptake, fluorescence in cell lysate; type: cell-based, human; conditions: 24 h exposure
Excerpt: Quantification in Cell Lysate: For dose response experiments of the uptake of compounds 7 and 17, total cell lysates of the exposed cells were collected and measured on an Optima Blue Fluostar plate reader (BMG Labtech) with lysis buffer as background. 2CNqATP was excited using 355 nm (±20 nm) filter and emission was collected at through a bandpass filter centred at 460 nm (±12 nm). pATP was excited using 380 nm (±5 nm) filter and emission bandpass filter centred at 410 nm (±5 nm). Lysate buffer fluorescence was subtracted as background, and the fluorescence intensities of the triplicates were averaged. The fluorescence intensity was normalized to the highest added concentration of the compounds (10 μM).
Dose-response experiments were performed at one selected time point (24 h) in order to investigate the concentration dependency of cellular FBA-TP uptake. At the end of exposure, the cells were washed and lysed. The fluorescence of the compounds in the lysate, reflecting the internalized FBA, was measured using a plate reader. […] Compounds 7 and 17 show very different uptake characteristics. Cellular uptake of 2CNqATP increases dramatically with small increases in concentration and reaches a maximum, indicative of uptake saturation, already when 2.5 μM FBA-TP is added to the cells. By contrast, the increase of pATP emission between 0 and 2.5 μM is very small, only 4% of that of 2CNqATP, but when FBA-TP concentration is doubled it increases about 7 times. By adding 10 μM FBA-TP the fluorescence increases about 25 times, compared to 2.5 μM added compound.

[4] = DPBS, room temperature; cited from earlier work

((2R,3S,4R,5R)-5-(2,3,5,6-tetraazacyclopenta[de]tetracen-2(6H)-yl)-3,4-dihydroxytetrahydrofuran-2-yl)methyl hydrogen triphosphate [pATP]
absorption band peaks [1]: 370 nm and 386 nm | εmax, FBA χ ΦF [1]: 6000 M⁻¹ cm⁻¹ | λabs, max [1]: 386 nm | ε405, FBA χ ΦF [1]: 909 M⁻¹ cm⁻¹ | λem, max [1]: 420 nm | ΦF [1]: 49% | intracellular fluorescence following 20 h exposure (Huh-7 cells [2]): strong intracellular fluorescence | fold increase of lysate fluorescence at 10 μM compared to 2.5 μM (Huh-7 cells [3]): about 25 times | fold increase of lysate fluorescence when concentration is doubled from 2.5 μM (Huh-7 cells [3]): about 7 times | increase of emission between 0 and 2.5 μM relative to that of 2CNqATP (Huh-7 cells [3]): 4% | ε260 [4]: 22300^27 M^−1 cm^−1

((2R,3S,4R,5R)-5-(8-cyano-2,3,5,6-tetraazaaceanthrylen-2(6H)-yl)-3,4-dihydroxytetrahydrofuran-2-yl)methyl hydrogen triphosphate [2CNqATP]
εmax, FBA χ ΦF [1]: 4900 M⁻¹ cm⁻¹ | λabs, max [1]: 352 nm | ε405, FBA χ ΦF [1]: 504 M⁻¹ cm⁻¹ | λem, max [1]: 463 nm | ΦF [1]: 47% | intracellular fluorescence following 20 h exposure (Huh-7 cells [2]): strong intracellular fluorescence | added concentration at which uptake reaches maximum (saturation) (Huh-7 cells [3]): 2.5 µM | ε260 [4]: 14600^26 M^−1 cm^−1
